Drawing on patent US11970497B2, “Tricyclic AKR1C3 dependent KARS inhibitors” (Novartis AG, priority 2019, dated 2024), this text covers AC50 for 25 molecules.

Test [1] deals with H460 (NRF2 pathway mutant cell line with high AKR1C3 expression). The test is described as follows: In vitro cell proliferation assay (CellTiter-Glo), H460. Format: cell-based. To be noted: Homo sapiens, NCI-H460, 72 h; H460 cells, 3 days, CellTiter-Glo, top concentration 10 μM; read-out: H460 Qualified absolute AC50. The source says: (§1) Cellular Proliferation Assay to Assess Compounds Activity in H460 (NRF2 Pathway Mutant Cell Line with High AKR1C3 Expression) and Hara (NRF2 Pathway Wild Type Cell Line with Low AKR1C3 Expression).
(§2) The cell lines A549 and H460 are NRF2 pathway mutant and specifically contain genetic alterations in KEAP1 (A549: G333C, H460: D236H) (Singh A. et al., 2006 PLoS Medicine 3(10) e420). In these cell lines the NRF2 pathway is constitutively active and these cells express high levels of NRF2 protein and NRF2 pathway target gene AKR1C3. […] They have low AKR1C3 expression.
(§3) In Vitro Cell Proliferation Assay
(§4) Day 1, for H460 800 cells/well or 40 μL of 2×10^4 cells/mL and for Hara 2000 cells/well or 40 μL of 5×10^4 cells/mL medium (RPMI-1640 supplemented with 10% fetal bovine serum and 1% penicillin/streptomycin) were seeded into 384-well tissue culture plates. Day 2, compounds were serially diluted 1:5 to generate 8 point dose response curves and added to cells for a final top concentration of 10 μM. DMSO (1%) control and MG132 (30 μM) controls are added in columns 23 and 24 respectively on each plate for positive and negative control. After incubation for 3 days at 37° C./5% CO2, 30 μl of CellTiter-Glo reagent (Promega) was added and the plates were incubated for 10 min on plate shaker. The amount of luminescence was determined using a Perkin Elmer Envision plate reader. CellTiter-Glo luminescence values of cells treated with DMSO and MG132 controls were used to normalize the data and calculate percentage activity and AC50s of compounds using the Helios Software suite.

The subject of test [2] is Hara (NRF2 pathway wild type cell line with low AKR1C3 expression). The test is described as follows: In vitro cell proliferation assay (CellTiter-Glo), Hara. It counts as cell-based. To be noted: 72 h; Hara cells, 3 days, CellTiter-Glo, top concentration 10 μM; read-out: HARA Qualified absolute AC50.
Source text: as §1, §2, §3, §4
On the technique in general: In ATP-based viability assays light output follows the ATP content of the culture.

For orientation: AC50 means the concentration giving half of the maximal activity seen.

With `CN1c2ccc(F)cc2C(=O)CC12CCN(C(=O)NCc1ccc(F)cc1F)CC2` [Example 5, N-(2,4-difluorobenzyl)-6′-fluoro-1′-methyl-4′-oxo-3′,4′-dihydro-1′H-spiro[piperidine-4,2′-quinoline]-1-carboxamide], the AC50 is 0.008 µM in test [1] and more than 10 µM in test [2].
The like results for `Cc1cc(F)cc2c1NC1(CCN(C(=O)NCc3ccc(F)c(C(N)=O)c3)CC1)CC2=O` [Example 142, N-(3-carbamoyl-4-fluorobenzyl)-6′-fluoro-8′-methyl-4′-oxo-3′,4′-dihydro-1′H-spiro[piperidine4,2′-quinoline]-1-carboxamide] were, in that order, 2.45 µM and more than 10 µM.
In the case of `CN1c2ccc(F)cc2C(=O)CC12CCN(C(=O)NCc1ccc(F)c(NC[C@H](O)CO)c1)CC2` [Example 45, (S)—N-(3-((2,3-dihydroxypropyl)amino)-4-fluorobenzyl)-6′-fluoro-1′-methyl-4′-oxo-3′,4′-dihydro-1′H-spiro[piperidine-4,2′-quinoline]-1-carboxamide], the figures for the AC50 in test [1] and in test [2] were 0.1 µM and more than 10 µM, respectively.
On the same counts, the results for `NS(=O)(=O)Cc1cc(CNC(=O)N2CCC3(CC2)CC(=O)c2cc(F)ccc2N3)ccc1F` [Example 147, 6′-fluoro-N-(4-fluoro-3-(sulfamoylmethyl)benzyl)-4′-oxo-3′,4′-dihydro-1′H-spiro[piperidine-4,2′-quinoline]-1-carboxamide] are 3.97 µM and more than 10 µM.
For the molecule `CC(C)S(=O)(=O)Nc1cc(CNC(=O)N2CCC3(CC2)CC(=O)c2cc(F)ccc2N3)ccc1F` [Example 23, 6′-fluoro-N-(4-fluoro-3-((1-methylethyl)sulfonamido)benzyl)-4′-oxo-3′,4′-dihydro-1′H-spiro[piperidine-4,2′-quinoline]-1-carboxamide], the results for the concentration at half-maximal activity (AC50) in test [1] and in test [2] were 6.9 µM and more than 10 µM, respectively.
The like results for `Nc1cc(F)c(CNC(=O)N2CCC3(CC2)CC(=O)c2cc(F)ccc2N3)c(F)c1` [Example 80, N-(4-amino-2,6-difluorobenzyl)-6′-fluoro-4′-oxo-3′,4′-dihydro-1′H-spiro[piperidine-4,2′-quinoline]-1-carboxamide] were, in that order, 0.347 µM and more than 10 µM.
Consider `NC(=O)c1cc(CNC(=O)N2CCC3(CC2)CC(=O)c2cc(F)cc(F)c2N3)ccc1F` [Example 11, N-(3-carbamoyl-4-fluorobenzyl)-6′,8′-difluoro-4′-oxo-3′,4′-dihydro-1′H-spiro[piperidine-4,2′-quinoline]-1-carboxamide], for which the figures for the AC50 in test [1] and in test [2] were 0.023 µM and more than 10 µM, respectively.
On the same counts, the results for `[2H]C([2H])(NC(=O)N1CCC2(CC1)CC(=O)c1cc(F)ccc1N2)c1ccc(F)cc1` [Example 12, 6′-fluoro-N-((4-fluorophenyl)methyl-d2)-4′-oxo-3′,4′-dihydro-1′H-spiro[piperidine-4,2′-quinoline]-1-carboxamide] are 0.024 µM and more than 10 µM.
On the same counts, the results for `COCCN1c2ccc(F)cc2C(=O)CC12CCN(C(=O)NCc1ccc(F)cc1)CC2` [Example 14, 6′-fluoro-N-(4-fluorobenzyl)-1′-(2-methoxyethyl)-4′-oxo-3′,4′-dihydro-1′H-spiro[piperidine-4,2′-quinoline]-1-carboxamide] are 0.029 µM and 0.795 µM.
On to `Cn1ncc(Cl)c1CNC(=O)N1CCC2(CC1)CC(=O)c1cc(F)ccc1N2` [Example 93, N-((4-chloro-1-methyl-1H-pyrazol-5-yl)methyl)-6′-fluoro-4′-oxo-3′,4′-dihydro-1′H-spiro[piperidine-4,2′-quinoline]-1-carboxamide], for which the results for the AC50 in test [1] and in test [2] were 5.73 µM and more than 10 µM, respectively.
On the same counts, the results for `O=C1CC2(CCN(C(=O)NCc3ccc(F)nc3)CC2)Nc2c(F)cc(F)cc21` [Example 125, 6′,8′-difluoro-N-((6-fluoropyridin-3-yl)methyl)-4′-oxo-3′,4′-dihydro-1′H-spiro[piperidine-4,2′-quinoline]-1-carboxamide] are 1.17 µM and more than 10 µM.
The like results for `O=C1CC2(CCN(C(=O)NCc3cnoc3)CC2)Nc2ccc(F)cc21` [Example 107, 6′-fluoro-N-(isoxazol-4-ylmethyl)-4′-oxo-3′,4′-dihydro-1′H-spiro[piperidine-4,2′-quinoline]-1-carboxamide] were, in that order, 0.612 µM and more than 10 µM.
On the same counts, the results for `Nc1ccc(CNC(=O)N2CCC3(CC2)CC(=O)c2cc(F)ccc2N3)c(F)c1F` [Example 57, N-(4-amino-2,3-difluorobenzyl)-6′-fluoro-4′-oxo-3′,4′-dihydro-1′H-spiro[piperidine-4,2′-quinoline]-1-carboxamide] are 0.17 µM and more than 10 µM.
`CS(=O)(=O)Nc1cc(CNC(=O)N2CCC3(CC2)CC(=O)c2cc(F)ccc2N3)ccc1F` [Example 131, 6′-fluoro-N-(4-fluoro-3-(methylsulfonamido)benzyl)-4′-oxo-3′,4′-dihydro-1′H-spiro[piperidine-4,2′-quinoline]-1-carboxamide]: the AC50 in test [1] was 1.62 µM; in test [2], more than 10 µM.
The like results for `CN1c2ccc(F)cc2[C@@H](O)CC12CCN(C(=O)NCc1ccc(F)cc1)CC2` (single isomer, unassigned) [Example 151b] were, in that order, 3.4 µM and 6.07 µM.
The like results for `Nc1ccc(CNC(=O)N2CCC3(CC2)CC(=O)c2cc(F)ccc2N3)cc1` [Example 89, N-(4-aminobenzyl)-6′-fluoro-4′-oxo-3′,4′-dihydro-1′H-spiro[piperidine-4,2′-quinoline]-1-carboxamide] were, in that order, 0.436 µM and more than 10 µM.
On the same counts, the results for `Nc1cc(CNC(=O)N2CCC3(CC2)CC(=O)c2cc(F)ccc2N3)ccc1F` [Example 95, N-(3-amino-4-fluorobenzyl)-6′-fluoro-4′-oxo-3′,4′-dihydro-1′H-spiro[piperidine-4,2′-quinoline]-1-carboxamide] are 0.485 µM and more than 10 µM.
For `O=C1CC2(CCN(C(=O)NCc3ccc(F)c(NS(=O)(=O)C4CC4)c3)CC2)Nc2ccc(F)cc21` [Example 133, N-(3-(cyclopropanesulfonamido)-4-fluorobenzyl)-6′-fluoro-4′-oxo-3′,4′-dihydro-1′H-spiro[piperidine-4,2′-quinoline]-1-carboxamide], the AC50 was 1.77 µM in test [1] and more than 10 µM in test [2].
On the same counts, the results for `O=C1CC2(CCN(C(=O)NCc3ccc(F)c(OCCO)c3)CC2)Nc2ccc(F)cc21` [Example 70, 6′-fluoro-N-(4-fluoro-3-(2-hydroxyethoxy)benzyl)-4′-oxo-3′,4′-dihydro-1′H-spiro[piperidine-4,2′-quinoline]-1-carboxamide] are 0.238 µM and 3.55 µM.
On to `COc1cc(F)ccc1CNC(=O)N1CCC2(CC1)CC(=O)c1cc(F)ccc1N2` [Example 114, 6′-fluoro-N-(4-fluoro-2-methoxybenzyl)-4′-oxo-3′,4′-dihydro-1′H-spiro[piperidine-4,2′-quinoline]-1-carboxamide], for which the results for the AC50 in test [1] and in test [2] were 0.913 µM and 4.43 µM, respectively.
On the same counts, the results for `O=C1CC2(CCN(C(=O)NCc3ccc(F)c(CNCCO)c3)CC2)Nc2ccc(F)cc21` [Example 146, 6′-fluoro-N-(4-fluoro-3-(((2-hydroxyethyl)amino)methyl)benzyl)-4′-oxo-3′,4′-dihydro-1′H-spiro[piperidine-4,2′-quinoline]-1-carboxamide] are 3.65 µM and 2.79 µM.
The like results for `O=C1CC2(CCN(C(=O)NCc3ccc(F)c(NCCO)c3)CC2)Nc2ccc(F)cc21` [Example 78, 6′-fluoro-N-(4-fluoro-3-((2-hydroxyethyl)amino)benzyl)-4′-oxo-3′,4′-dihydro-1′H-spiro[piperidine-4,2′-quinoline]-1-carboxamide] were, in that order, 0.321 µM and more than 10 µM.
The like results for `Nc1cc(CNC(=O)N2CCC3(CC2)CC(=O)c2cc(F)cc(F)c2N3)ccc1F` [Example 73, N-(3-amino-4-fluorobenzyl)-6′,8′-difluoro-4′-oxo-3′,4′-dihydro-1′H-spiro[piperidine-4,2′-quinoline]-1-carboxamide] were, in that order, 0.295 µM and 3.48 µM.
With `Nc1ccc(CNC(=O)N2CCC3(CC2)CC(=O)c2cc(F)ccc2N3)c(C(F)(F)F)c1` [Example 104, N-(4-amino-2-(trifluoromethyl)benzyl)-6′-fluoro-4′-oxo-3′,4′-dihydro-1′H-spiro[piperidine-4,2′-quinoline]-1-carboxamide], the values for the AC50 in test [1] and in test [2] were 0.573 µM and more than 10 µM, respectively.
On the same counts, the results for `O=C1CC2(CCN(C(=O)NCc3ccc(F)c(CO)c3)CC2)Nc2c(F)cc(F)cc21` [Example 132, 6′,8′-difluoro-N-(4-fluoro-3-(hydroxymethyl)benzyl)-4′-oxo-3′,4′-dihydro-1′H-spiro[piperidine-4,2′-quinoline]-1-carboxamide] are 1.72 µM and more than 10 µM.
